What was measured:
VX2 tumor slices = test: Glycolysis (lactic acid formation) in VX2 tumor slices; format: cell-based, rabbit; conditions: for inhibition of VX2 tumor glycolysis in the limited screen: 6 mM agent, 6 mM glucose, 37° C., 5 h
Description: Glycolysis was assayed by monitoring the formation of lactic acid following the addition of glucose to a medium containing VX2 tumor slices. Specifically, freshly excised tumors were washed 3 times at 4° C. in 20 ml Chance Hess Medium containing 6.2 mM KCl, 154 mM NaCl, and 11 mM NaPi, pH 7.4. Slices, 1 g each, were then prior incubated for 30 min in a Lab-Line incubator-shaker at 37° C. in 2 ml of the same medium while shaking at 50 rpm. Glucose was then added to give a final concentration of 6 mM, after which the incubation/shaking process was continued with 0.2 ml samples being removed every 30 min for up to 2 h. These samples were subjected to centrifugation at 14,000 rpm in an Eppendorf Centrifuge (Model 5415C). Then, aliquots of the supernatant, 0.01 ml, were removed from each sample, diluted with 0.03 ml of water and subjected to lactic acid determination using the kit supplied by Sigma. The latter contains, in addition to lactic dehydrogenase and NAD+, hydrazine, and glycine buffer, pH 9.2. The mixture was incubated for 30 min at 25° C. after which the absorbance due to formation of NADH was determined at 340 nm using a Gilford Model 260 spectrophotometer. To assess the elevation of the glycolytic activity of the VX2 tumor over that of liver tissue, parallel studies were always carried out in an identical manner with 1 g liver slices derived from the host liver. Finally, in those cases where agents were tested for their capacity to inhibit glycolysis, these were introduced into the system at the prior incubation step with all subsequent steps being run in parallel with those described above for the VX2 tumor or liver alone.
The screen included the following 9 compounds: 2-deoxyglucose (2DOG), 2-fluoro-2-deoxyglucose, 6-fluoro-6-deoxyglucose, 3-O-methyl glucose, 5-thio-D-glucose-6-phosphate, L-glucose, D-xylose, D-lyxose, and 3-bromopyruvic acid (3BrPA). The screen was conducted by incubating VX2 tumor slices in a medium containing 6 mM glucose with 6 mM of each of these agents at 37° C. for 5 h. The use of 6 mM glucose in the medium was used to mimic the maximal amount of glucose that might be in the blood in a real in vivo situation.
With the above preliminary data at hand, only two of the 9 compounds screened were studied in more detail. One was 2DOG because under certain conditions it is known to inhibit glycolysis when it is phosphorylated by hexokinase to 2DOG-6-P which cannot be further metabolized. The other compound tested in more detail was 3BrPA because of its effectiveness as a glycolytic inhibitor in the preliminary screen.

AS-30D hepatoma cells = test: Hepatoma cell viability by trypan blue; format: cell-based, rat; conditions: 20 mM, 12 h
Description: AS-30D hepatoma cells grown in the peritoneal cavity of Sprague Dawley female rats (see Materials) were adapted to grow in tissue culture in Dulbecco's modified Eagle's medium containing 10% fetal bovine serum. Cells were maintained at 37° C. in a humidified atmosphere containing 5% CO2, and counted in a Neubauer chamber after trypan blue dye addition (cell/dye volume=1/1) by visualization under a Nikon inverted microscope.
The studies described above using the VX2 tumor model for liver cancer predict that 2DOG and 3BrPA may have the capacity to kill hepatoma cells expressing the high glycolytic/high hexokinase phenotype. […] Cell killing was assessed in these experiments by counting those cells in which trypan blue had entered.

Structure (SMILES) | inhibition of VX2 tumor glycolysis in the limited screen (VX2 tumor slices) | other results
O=C[C@H](O)[C@@H](O)[C@H](O)[C@H](O)CF [6-fluoro-6-deoxyglucose] | ineffective | –
O=C[C@@H](O)[C@@H](O)[C@H](O)CO [D-lyxose] | ineffective | –
CO[C@@H]([C@H](O)[C@H](O)CO)[C@@H](O)C=O [3-O-methyl glucose] | ineffective | –
O=C[C@H](F)[C@@H](O)[C@H](O)[C@H](O)CO [2-fluoro-2-deoxyglucose] | ineffective | –
O=C[C@H](O)[C@@H](O)[C@H](O)CO [D-xylose] | ineffective | –
O=CC[C@@H](O)[C@H](O)[C@H](O)CO [2DOG, 2-deoxyglucose] | ineffective | cells killed (trypan blue uptake) (AS-30D hepatoma cells): about 80%; IC50 (VX2 tumor slices; Oryctolagus cuniculus, 0.5 h, VX2 tumor slices, agent prior incubated 30 min at 37° C., read-out: half maximal inhibition of glycolysis): ~15 mM; concentration for maximal or complete inhibition of glycolysis (VX2 tumor slices; VX2 tumor slices, agent prior incubated 30 min at 37° C.): ~50 mM; maximal inhibition of glycolysis (VX2 tumor slices; VX2 tumor slices, at almost 50 mM): 70%
O=C[C@@H](O)[C@H](O)[C@@H](O)[C@@H](O)CO [L-glucose] | ineffective | –
O=C[C@H](O)[C@@H](O)[C@H](O)[C@H](S)COP(=O)(O)O [5-thio-D-glucose-6-phosphate] | ineffective | –
